What all share (experiment): growth of human tumour cells (NCI), 48 h
For assay [1], the system named is MDA-MB-231 breast.
The test system of assay [2] is SF-268 CNS.
In assay [3] the test system is HCT-15 colon.
The subject of assay [4] is MCF7 breast.
The subject of assay [5] is A498 renal.
Assay [6] has as its system SK-OV-3 ovarian.
Assay [7] has as its system UACC-62 melanoma.
The subject of assay [8] is SK-MEL-2 melanoma.

“And” between values parts separate entries of the source, which are not always exact repeats. Identical values can stand only once.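 Step 1: Grow cells in 96-well plates. Step 2: Expose to compound for 48 hours at 5 concentrations. Step 3: Interpolate endpoints linearly; if unreached, use highest concentration. The concentration for 50% growth inhibition is given as GI50. Definition used: TGI = concentration required for complete inhibition of growth.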

Regarding `CCCCCCCCCCCCn1c(C)nc2ccccc21`, the GI50 in assay [1] was 15.3 µM; in assay [2], 19.6 µM; in assay [3] it was 12.3 µM; in assay [4] it was 5.15 µM; in assay [5], 12.4 µM; in assay [6], 13.6 µM. The GI50 in assay [7] is 13.1 µM. Also, the TGI in assay [1] came to 34.8 µM; in assay [2], 41.1 µM; in assay [3], 27.4 µM; in assay [4], 23.3 µM; in assay [5] it was 25.5 µM; in assay [6] it was 26.5 µM. Further, in assay [7], the TGI came to 26.9 µM.
On to `COc1ccc2c(c1)CCC1C2CC[C@@]2(C)C1CC[C@@]2(O)CNC(=O)/C=C/c1ccc(O)c(OC)c1` (some centres not stated), for which the GI50 in assay [8] was 38.8 µM; in assay [2] it was 20 µM; in assay [3] it was 11.5 µM; in assay [4] it was 7.41 µM; in assay [5] it was 23 µM; in assay [6] it was 66.1 µM. In assay [7], the GI50 was 12.1 µM. Further, the TGI was over 100 µM in assay [8]; over 100 µM in assay [2]; 33.1 µM in assay [3]; over 100 µM in assay [4]; 54.5 µM in assay [5]; over 100 µM in assay [6]. The same molecule showed a TGI in assay [7] of 34.9 µM.
For `COC(=O)c1c[nH]c(=O)[nH]c1=O`, the TGI in assay [8], in assay [2], in assay [3], in assay [4] and in assay [7] was over 100 µM throughout.
Regarding `COc1ccc(-c2oc(=O)ccc2C#Cc2cc(OC)c(OC)c(OC)c2)cc1O`, the GI50 in assay [1] was 11.6 µM; in assay [8], 28 µM; in assay [2], 15.7 µM; in assay [3], 26.3 µM; in assay [4], 15.9 µM; in assay [5], 30 µM. The GI50 is 30.7 µM in assay [6] and 13.5 µM in assay [7]. The TGI in assay [1] is over 100 µM; in assay [8] it was over 100 µM; in assay [2] it was 58.5 µM; in assay [3], over 100 µM; in assay [4], 51.7 µM; in assay [5] it was 76.8 µM. In addition, the TGI in assay [6] is over 100 µM; in assay [7], 63.5 µM.
For `O=C(c1ccccc1)C1C(C(=O)c2ccccc2)N1Cc1ccccc1` (configuration not stated), the TGI was over 100 µM in assay [1]; 51.5 µM in assay [8]; over 100 µM in assay [2]; over 100 µM in assay [3]; over 100 µM in assay [5]; over 100 µM in assay [6]. The molecule further showed a TGI in assay [7] of 70.8 µM.
On to `Cc1ccc(Cl)cc1Nc1nc(C(F)(F)F)ccc1C(=O)Nc1cccc(C(F)(F)F)c1`, for which the GI50 in assay [1] is 2.29 µM; in assay [8] it was 2.45 µM; in assay [2], 3.59 µM; in assay [3], 3.67 µM; in assay [4], 2.49 µM; in assay [5] it was 2.97 µM. The figures for the GI50 in assay [6] and in assay [7] were 1.74 µM and 5.22 µM, respectively. The TGI in assay [1] was found to be 9.63 µM; in assay [8] it was 6.58 µM; in assay [2], 13.8 µM; in assay [3] it was 14.9 µM; in assay [4] it was 9.5 µM; in assay [5] it was 8.59 µM. Also, the TGI in assay [6] is 5.47 µM; in assay [7] it was 17.1 µM.
Regarding `O=C(/C=C/c1ccc(C(F)(F)F)cc1)c1ccc(Nc2nc(NCCO)nc(NCCO)n2)cc1`, the GI50 in assay [1] is 3.29 µM; in assay [2], 2.8 µM; in assay [3], 3.07 µM; in assay [4] it was 1.66 µM; in assay [5], 8.85 µM; in assay [6], 4 µM. For the same molecule, the GI50 in assay [7] is 2.13 µM. Also, the TGI in assay [1] is 13.8 µM; in assay [2] it was 11.5 µM; in assay [3] it was 11.3 µM; in assay [4], 5.16 µM; in assay [5], 21.2 µM; in assay [6] it was 15.1 µM. Further, in assay [7], the TGI was found to be 6.03 µM.
Consider `C(=N\Nc1nnc2c(n1)[nH]c1ccccc12)/c1cccnc1`, for which the TGI in assay [1], in assay [8], in assay [2], in assay [3], in assay [4] and in assay [5] was over 100 µM in each case. The TGI in assay [6] and in assay [7] was over 100 µM each time.
With `CN(C)c1ccc(/C=C2\C[C@H]3[C@@H]4CC=C5C[C@@H](N6CCCC6)CC[C@]5(C)[C@H]4CC[C@]3(C)[C@H]2O)cc1`, the GI50 in assay [1] was 2.23 µM; in assay [8], 2 µM; in assay [2] it was 2.93 µM; in assay [3] it was 3.43 µM; in assay [5] it was 2.89 µM; in assay [6], 14.7 µM. Moreover, the GI50 in assay [7] is 2 µM. Further, the TGI in assay [1] is 2.16 µM and 4.46 µM; in assay [8], 2.35 µM and 3.89 µM; in assay [2], 2.4 µM and 9.84 µM; in assay [3] it was 5.51 µM and 22.3 µM; in assay [4], 12.5 µM; in assay [5], 2.1 µM and 8.92 µM. Moreover, the TGI is 13 µM and > 100 µM in assay [6]; 1.6 µM and 4.05 µM in assay [7].
Turning to `C=C(C=O)C1CC(=O)C(C(=O)OC)[C@@H]2O[C@@](C)(CC2=O)C[C@@H]2OC(=O)[C@]3(O[C@@H]23)[C@@H](C(=O)OC)C1` (some centres not stated), the GI50 was 22.1 µM in assay [1]; 15.6 µM in assay [8]; 21.5 µM in assay [2]; 16.2 µM in assay [3]; 11.1 µM in assay [4]; 20.7 µM in assay [5]. In addition, the values for the GI50 in assay [6] and in assay [7] were 60.6 µM and 18.1 µM, respectively. In addition, the TGI in assay [1] was found to be 57.5 µM; in assay [8], 52.9 µM; in assay [2], 65.9 µM; in assay [3], 38.5 µM; in assay [4] it was 28 µM; in assay [5], 47 µM. Further, the TGI in assay [6] was over 100 µM; in assay [7], 44.8 µM.
As for `O=NC1c2cccc3cccc(c23)C1N=O` (configuration not stated), the TGI in assay [2] worked out at 26.3 µM; in assay [3], 5.02 µM; in assay [4], 25.8 µM; in assay [5], 35.8 µM; in assay [6], 43.7 µM.
With `Nc1[nH]c(=O)ncc1F`, the TGI in assay [8], in assay [2], in assay [3], in assay [4], in assay [5] and in assay [6] was over 100 µM throughout. The same molecule registered a TGI in assay [7] of over 100 µM.
As to `O=[N+]([O-])c1cccc([N+](=O)[O-])c1S(=O)(=O)c1ccccc1`, the TGI in assay [1] came out at 37.3 µM; in assay [2] it was 29 µM; in assay [3] it was 4.1 µM; in assay [4], 43.1 µM; in assay [5], 36.1 µM; in assay [6], 31.2 µM.
Take `C=C(CN1CCN(c2ccccc2OC)CC1)c1ccc(C(=O)Nc2ccccc2N)cc1`: the GI50 is 0.315 µM in assay [1]; 12.6 µM in assay [8]; 12.2 µM in assay [2]; 2.03 µM in assay [3]; 16.7 µM in assay [4]; 7.18 µM in assay [6]. The GI50 in assay [7] is 1.18 µM. Also, the TGI in assay [1] was 4.4 µM; in assay [8], 37.9 µM; in assay [2], 36 µM; in assay [3], 31.3 µM; in assay [4], over 50 µM; in assay [6], 18.1 µM. The molecule also showed a TGI in assay [7] of 6.92 µM.
As for `CC1(C)CCC[C@]23C(=O)O[C@](O)(C(=O)C4=C[C@@](C)(/C=C/CCCc5ccc6ccc7cccc8ccc5c6c78)CC[C@@]42O)[C@@H]13`, the GI50 was 0.197 µM in assay [1]; 0.217 µM in assay [8]; 0.208 µM in assay [2]; 0.148 µM in assay [3]; 0.15 µM in assay [5]; 0.178 µM in assay [6]. Also, the GI50 in assay [7] was 0.176 µM. The TGI is 0.431 µM in assay [1]; 0.471 µM in assay [8]; 0.498 µM in assay [2]; 0.425 µM in assay [3]; 0.288 µM in assay [5]; 0.324 µM in assay [6]. Moreover, the TGI in assay [7] worked out at 0.343 µM.
As to `O=c1[nH]cc(CS(=O)(=O)Cc2c[nH]c(=O)[nH]c2=O)c(=O)[nH]1`, the TGI in assay [1], in assay [8], in assay [2], in assay [3], in assay [4] and in assay [5] was over 100 µM in each case. The same molecule registered a TGI in assay [7] of over 100 µM.
Consider `CCN1CCN(c2nc(NNC(=O)Cc3ccccc3)nc(N3CCN(C(c4ccccc4)c4ccccc4)CC3)n2)CC1`, for which the GI50 was 1.99 µM in assay [1]; 2.1 µM in assay [8]; 2.06 µM in assay [2]; 1.9 µM in assay [3]; 7.3 µM in assay [5]; 2.09 µM in assay [6]. The GI50 in assay [7] is 1.71 µM. For the same molecule, the TGI is 3.69 µM in assay [1]; 4.5 µM in assay [8]; 5.06 µM in assay [2]; 3.76 µM in assay [3]; 20.9 µM in assay [5]; 4.48 µM in assay [6]. In assay [7], the TGI was 3.46 µM.

Source of the values: PubChem BioAssay (NCI).
